Entries after “also recorded” stand apart in the source; their conditions may differ.
How the values were obtained:
Assay type in all cases: cell-based
N1E-115 cells [1] = test: Cell guidance assay at Laminin/CSPG boundary (axonal guidance); details: for neurite morphology: serum starved cells, FIG. 9A
Method: Effect of PAK peptides on neurite morphology. Cells are exposed to control peptide, αP 1*, αP2, βP2, or γP2 and neurite morphology assessed. (B) Cells are plated on coverslips that been treated to create a Laminin/CSGP boundary. After 6 h cells are examined for their ability to project neurites that crossed the substrate boundary. Cells exposed to bioporter coated peptides, (a) αP2, (b) βP2, and (c) γP2. […] Results are means+/−SEM (n=161-263). (C) Cells are exposed to peptides and after 6 h are scored for their ability to cross boundary from Laminin to CSPG.
The coverslips are washed and sterilised and then coated in one of the following ways.
A second layer of laminin is applied as a drop mixed with 1 μg/ml TRITC label. Coverslips are left for 1 hour at RT and then rinsed twice with sterile water before allowing to dry before use. (iii) Attractive/repulsive boundary. Slides are coated with CSPG 5 μg/ml for 1 hour at 37° C. in a humid chamber then rinsed once in sterile H2O and allowed to air dry before the drop of laminin at 10 μg/ml is applied to the centre of the coverslip and left for 1 hour at RT before rinsing twice in sterile water and allowing to dry before use. This coating is also done in reverse with the laminin applied first and then the tenascin or the CSPG applied second.
The cells are then seeded onto the prepared coverslips at 2×10^5 cells in 1 ml in a 35 mm petri dish, in DMEM, 10% FCS, and 1% AB/AM. Cells are allowed to attach overnight. The media is then removed and the coverslips rinsed in serum free media and incubated overnight (18 h) in serum free media. After the starvation the cells are fixed and stained to show the morphology of the cells at the boundary. Only neurites expressing neurofilamant are scored.
After 5 minutes, the cells are washed once with serum free DMEM media and then 1 ml of serum free DMEM is added to the tube containing the peptide and BioPorter mix it is vortexed gently before being added to the cells. The cells are incubated for 4 hours at 37° C. After the 4 hour incubation the cells are then incubated for a further 2 hours in 5% FCS DMEM or for cells undergoing a substrate guidance assay the 2 hour incubation is in serum free DMEM. The cells are fixed and stained.
Neurofilament positive neurites are scored for how they respond to Laminin/CSPG boundary. […] However, neurites do have distinct morphologies (FIG. 9A). Thus α, β and γ PAK are not essential for neurite outgrowth.

N1E-115 cells [2] = test: Microinjection of peptides into partially serum starved N1E-115 cells, phalloidin staining and confocal microscopy of cell morphology; details: for effect on formation of lamellipodia, filopodia or neurites concluded from microinjection: FIG. 8A; for cell morphology after peptide microinjection: peptide injected at 10 μg/ml, cells serum starved 2-4 h, FIG. 7A, 8A
Method: Cells are starved for 2-3 h and then either injected with peptides (10 μg/ml) or exposed to peptides with bioporter reagent. Cells are incubated for a further 2 h before being stained with phalloiden and examined by confocal microscopy (as described in the materials and methods section). (A) The upper cells is injected with αP1 (a), or all cells injected with αP1*(b), or exposed to αP2 with bioporter reagent (c). […] Results are expressed as means+/−SEM of 3 experiments (n=333-426 cells). […] (D) Cells are exposed to bioporter reagent with αP2 and after 6 h double stained with αPAK and vinculin antibodies; (a) Vinculin/αPAK, (b) Vinculin and (c) αPAK. Bar=10 μM. Control bars are with IgG with bioporter/microinjection.
(§1) Cells are starved for 2-3 h and then injected with peptides. Cells are then incubated for 2 h before being stained with phalloiden and examined by confocal microscopy (as described in the materials and methods section). (A) Cells are injected with IgG (a), with αP2 (b), with βP2 (c) and γP2 (d). Bar=10 μM. (B) Cells are exposed to bioporter with peptides and presence of neurites, pronounced filopodia and pronounced lamellipodia/ruffles scored (definitions as in FIG. 7). (C) Cells are either exposed to bioporter reagent coated peptides (αP2 and βP2) and then IGF or serum starvation used to activate cells. For γP2 cells are injected with peptide and stimulated with serum. Filopodia and lamellipodia are scored by using time-lapse phase contrast microscopy. +/−SEM of 3 experiments (n=900). Control peptide is taken from the kinase domain and common to the three PAK isoforms.
Cells are plated out at 1.0×10^5 cells in 1 ml in a 35 mm dish containing 2 laminin coated coverslips. The coverslips are first marked with a grid using a fine permanent marker and then coated with laminin and incubated overnight in DMEM, 10% FCS, 1% AB/AM. The media is replaced with serum free media (DMEM, 1% AB/AM) and the cells starved for 1 hour so that they flattened and are easier to inject. The peptides are injected at 10 μg/ml in PBS, Rat IgG at 1 mg/ml is added to act as a marker for injected cells.
The cells are injected using an Eppendorf microinjection apparatus on an Axioplan inverted microscope equipped with a heated stage maintained at 37° C. and a 5% CO2 chamber. Humidity is maintained by a dish of sterile water inside the CO2 chamber. Cells in a grid square are injected and positive injection checked visually at the time of injection or after fixation and staining for the injected marker. After injection the cells are returned to the incubator for a further 2 hours. Giving a total time without serum of 4 hours.
The only difference between these two peptides being that the latter peptide is phosphorylated on serine and this modification prevents it from binding Nck (Zhao et al., 1998). To investigate the effects of peptides we first serum starve the cells for 2-4 h to activate Cdc42Hs and Rac.

N1E-115 cells [3] = test: Phase contrast time-lapse analysis of filopodia and lamellipodia formation in a gradient of IGF; details: followed for 60 min; FIG. 8C
Method: as §1
Time lapse microscopy is carried out on a heated stage (37° C.) in an atmosphere of humidified air and 5% CO2. Cells are video recorded using a, Axiovert 135 microscope, Palmix TM-6CN video camera and Sony-u-matic V0-5800 PS video recorder. Individual images are captured using Bio-rad COMOS software and manipulated with Adobe photoshop. Confocal microscopy is carried out using a LSM 410 Zeiss scanning microscope with 3 single line lasers at 488 nM (argon), 543 nM and 633 nM, (HeNe). […]

N1E-115 cells [4] = test: Axonal guidance towards IGF (preliminary experiments); details: unpublished data
Source text: In preliminary experiments we have also examined the effect of the PAK peptides on axonal guidance towards IGF in N1E-115 cells.

Bac1 macrophages = test: Time lapse / microinjection analysis of Bac1 macrophage morphology (CSF, LPA gradients, C3 toxin)
Method: (A) Bac1 cells are grown (24 h) in four different ways and then stained with phalloidin to visualise F-actin. With serum alone (a), without CSF/serum (b), with CSF/serum (c), and with CSF alone (d). (B) Cells are starved of CSF for 24 h and then exposed to gradient of CSF (1.32 nM) through a needle. A time lapse sequence is shown over 30 min. (C) Bac1 macrophages are CSF/serum starved for 24 h and then exposed to a gradient of LPA through a needle. A time lapse sequence is shown over 10 min. (D) Bac1 macrophages starved for serum alone and then exposed to a gradient of CSF through a needle and LPA added to the medium. CSF is added in panel (b) followed by LPA. Panels c-f show process retraction on the side of the cell that is not protected by CSF. Arrows in (B) show the formation of filopodia. Arrows in (C) show process retraction. Bar=10 μM. […]
Proteins purified from E. coli and C3 toxin are microinjected in 50 MM Tris pH 7.5, 50 mM NaCl, 5 mM MgCl2 using an Eppendorf microinjector and Axiovert microscope. Successful injection is determined visually at the time of injection and by use of IgG. […]
Time lapse microscopy is carried out on a heated stage (37° C.) in an atmosphere of humidified air and 5% CO2. Cells are video recorded using a, Axiovert 135 microscope, Palmix TM-6CN video camera and Sony-u-matic V0-5800 PS video recorder. […]

Molecule | ability to detect the Laminin/CSPG boundary (N1E-115 cells [1]; FIG. 9C) | neurites crossing over the Laminin/CSPG boundary (N1E-115 cells [1]; control approx. 10%, FIG. 9C) | neurite morphology (N1E-115 cells [1]) | effect on formation of lamellipodia, filopodia or neurites concluded from microinjection (N1E-115 cells [2]) | cell morphology after peptide microinjection (N1E-115 cells [2]) | formation of filopodia in response to IGF gradient (N1E-115 cells [3]) | decision making process of moving towards IGF (N1E-115 cells [4]) | effect on axonal guidance towards IGF (N1E-115 cells [4]) | formation of lamellipodia in response to IGF gradient (N1E-115 cells [3]) | protection from LPA mediated process collapse (Bac1 macrophages; CSF via needle, LPA added to medium after 1.5 min, FIG. 2D) | morphological response of Bac1 cells to a gradient of the factor (Bac1 macrophages; gradient through a needle, FIG. 2B, 2C)
SDNGELEDKPPAPPVRMSST [γP2, peptide derived from γPAK] | do not to recognize the boundary | 60-70% | smooth and flattened with fan shaped growth cones; also recorded: flattened growth cones and very few filopodia | blocks filopodia formation | large fan-shaped lamellipodia with no filopodia | inhibit |  |  |  |  | 
SDSLDNEEKPPAPPLRMNSN [βP2, peptide derived from βPAK] | not affected |  | branched and spiky with lamellipodia and ruffles inhibited | blocks lamellipodia formation | numerous filopodia along a newly formed leading edge with no lamellipodia |  | does slow down the decision making process | do not affect guidance | inhibit |  | 
CSF: growth factor for Bac1 macrophages; activates Cdc42Hs and Rac1 (protein, UniProt P07141 33-552, looked up) Macrophage colony-stimulating …: KEVSEHCSHMIGNGHLKVLQQLIDSQMETSCQIAFEFVDQEQLDDPVCYLKKAFFLVQDIIDETMRFKDNTPNANATERLQELSNNLNSCFTKDYEEQNKACVRTFHETPLQLLEKIKNFFNETKNLLEKDWNIFTKNCNNSFAKCSSRDVVTKPDCNCLYPKATPSSDPASASPHQPPAPSMAPLAGLAWDDSQRTEGSSLLPSELPLRIEDPGSAKQRPPRSTCQTLESTEQPNHGDRLTEDSQPHPSAGGPVPGVEDILESSLGTNWVLEEASGEASEGFLTQEAKFSPSTPVGGSIQAETDRPRALSASPFPKSTEDQKPVDITDRPLTEVNPMRPIGQTQNNTPEKTDGTSTLREDHQEPGSPHIATPNPQRVSNSATPVAQLLLPKSHSWGIVLPLGELEGKRSTRDRRSPAELEGGSASEGAARPVARFNSIPLTDTGHVEQHEGSSDPQIPESVFHLLVPGIILVLLTVGGLLFYKWKWRSHRDPQTLDSSVGRPEDSSLTQDEDRQVELPV |  |  |  |  |  |  |  |  |  | can protect the process nearest to the source of CSF from LPA mediated process collapse | induces the formation of filopodia and lamellipodia

Reference: patent US20060088897A1, “Modulators” (priority 2003, published 2006)
